# Assay results taken from patent US20020022746A1, “Method for the crystallization of iopamidol” (priority 1998, published 2002).
# Assay: Solubility of Iopamidol plotted against reflux time (FIG. 1)
# Type: physicochemical
# Procedure: With reference to FIG. 1, there is a graph showing the solubility of Iopamidol plotted against reflux time when a ratio of Iopamidol:water:ethanol 4:1:8 (w/v/v) is used in accordance with the method of the present invention. As shown in this graph, the reflux for 4 hours or greater allows the crystallized Iopamidol to have a solubility of 80% or greater. […] Because Iopamidol monohydrates or pentahydrates are of about 50% solubility, the method of the present invention can convert Iopamidol monohydrates or pentahydrates into Iopamidol anhydrides.
# FIG. 1 is a graph showing the solubility change of the Iopamidol with reflux time.
Structure (SMILES),solubility (hydrated crystalline forms),"solubility (crystallized Iopamidol, Iopamidol:water:ethanol 4:1:8 (w/v/v), reflux for 4 hours or greater) [%]"
"C[C@H](O)C(=O)Nc1c(I)c(C(=O)NC(CO)CO)c(I)c(C(=O)NC(CO)CO)c1I [Iopamidol monohydrates, Iopamidol]",about 50%,
C[C@H](O)C(=O)Nc1c(I)c(C(=O)NC(CO)CO)c(I)c(C(=O)NC(CO)CO)c1I [Iopamidol],,≥ 80
